From article PMC4549042, “Targeting procaspase-3 with WF-208, a novel PAC-1 derivative, causes selective cancer cell apoptosis” (Journal of Cellular and Molecular Medicine, 2015)
pEC50, pIC50: −log10 of the molar value. Where two headings read alike, the source gives them in different places.

Key:
[1] = test system: MCF-7 cells transfected with procaspase-3; assay: Cytotoxicity in MCF-7 cells transfected with procaspase-3; assay type: cell-based, human; settings: different concentrations, vs empty vector
Procedure: (§1) The cell viability effects of the tested compounds were determined by MTT assay. Cells (1 × 10^4 cells/100 μl/well) were seeded into 96-well culture plates. After overnight incubation, cells were treated with various concentrations of compounds for 72 hrs. Subsequently, 10 μl MTT solution (2.5 mg/ml in PBS) was added to each well, than the cells were incubated for an additional 3–4 hrs at 37°C. After centrifugation (200 × g, 10 min.), the medium with MTT was aspirated, followed by the addition of 100 μl DMSO. The optical density of each well was measured at 570 nm with a Biotek Synergy TM HT Reader.
HL-60 cells were transfected with procaspase-3 siRNA (Invitrogen, New York, USA, 100 nmol/l final concentration, Sense siRNA Sequence: GUCUAACUGGAAAACCCAAtt Antisense siRNA Sequence: UUGGGUUUUCCAGUUAGACtt) by Lipofectamine 2000 (Invitrogen) according to the manufacturer’s instructions. Scrambled siRNA (Invitrogen) was control. The cDNA of human procaspase-3 was cloned into pIRES2-EGFP expression vector, and procaspase-3 and EGFP genes were separately expressed. The pIRES2-EGFP and pIRES2-EGFP-procaspase-3 were transiently transfected into MCF-7 cells. Expression of procaspase-3 was verified by western blotting.

HL-60 cell line = assay: MTT cell viability assay, HL-60; assay type: cell-based, human; settings: HL-60, 10 μM ZnSO4, 24 hrs
human normal cells = assay: MTT cytotoxicity in human normal cells; assay type: cell-based
Excerpt: (§2) Human malignant cell lines, A549, Colo-205, DU145, NCI-H226, Hep-3B, Hep-G2, K562, MCF-7, U-87, GBC-SD, MDA-MB-435S, PC-3, U-937, HL60, SH-SY5Y and human normal cell lines, MCF-10A and L-02, HUVEC were obtained from the American Type Culture Collection (Manassas, VA, USA) and National Center for Medical Culture Collection (Shanghai, China). They were routinely cultured in RPMI 1640, DMEM or DMEM/F12 (Gibco, New York, USA) supplemented with 10% foetal bovine serum (Gibco, New York, USA) and maintained at 37°C in a humidified incubator with 5% CO2.
Human peripheral blood lymphocytes were obtained as described previously. In brief, after diluting blood with PBS, lymphocytes were isolated by centrifugation over a density gradient of lymphocytes extracting solution for 15 min. at 280 × g. The cells were harvested, washed with PBS twice, and suspended in complete RPMI 1640 (Gibco, New York, USA) with 10% foetal bovine serum (Gibco, New York, USA).
The cell viability effects of the tested compounds were determined by MTT assay. Cells (1 × 10^4 cells/100 μl/well) were seeded into 96-well culture plates. After overnight incubation, cells were treated with various concentrations of compounds for 72 hrs. […] The optical density of each well was measured at 570 nm with a Biotek Synergy TM HT Reader.

HL-60 cells = assay: Immunofluorescence of cleaved caspase-3; assay type: cell-based, human; settings: 10 μM, 24 hrs
Procedure: HL-60 cells were treated with the 50 μM of PAC-1 and 10 μM WF-208 for 0.5, 1, 3, 6, 12 and 24 hrs. After such treatment, cells were fixed in 4% paraformaldehyde for 15 min., washed with PBS. Subsequently, cells were blocked with 10% bovine serum albumin (BSA) and Triton X-100 for 1 hr at room temperature and incubated at 4°C overnight with anti-cleaved caspase-3 rabbit mAb (1:100) diluted in 1% BSA. After three times of washing with PBS, cells were incubated with secondary antibody (FITC-conjugated goat anti-rabbit IgG, 1:200) for 1 hr at room temperature. Hoechst 33342 was used as a double staining for the nucleus. After washing with PBS, digital images of the cells captured under with ImageXpress 5000 (Molecular Devices, Sunnyvale, CA, USA). The images were quantified and analysed by using MetaXpress software (Molecular Devices). Cleaved caspase-3 level was expressed as the percentage of positively FITC-stained cells.

rh-procaspase-3 [2] = target: T1, rh-procaspase-3 (Homo sapiens, UniProt P42574); assay: Caspase-3 activation assay (procaspase-3 activation in vitro); assay type: biochemical; settings: rh-procaspase-3, concentrations 0.08–100 μM
T1 construct: purchased R&D System (Minneapolis, USA)
T1 sequence (P42574 1-277): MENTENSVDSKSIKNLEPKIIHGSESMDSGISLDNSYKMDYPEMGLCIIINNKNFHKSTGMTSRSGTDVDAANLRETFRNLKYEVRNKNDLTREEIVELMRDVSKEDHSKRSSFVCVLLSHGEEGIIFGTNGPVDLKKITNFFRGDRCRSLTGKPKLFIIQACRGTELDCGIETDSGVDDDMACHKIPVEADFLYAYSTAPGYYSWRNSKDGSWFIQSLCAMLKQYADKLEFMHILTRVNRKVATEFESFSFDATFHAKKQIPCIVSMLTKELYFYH
Procedure: Procaspase-3 protein was purchased from R&D System (Minneapolis, USA). Procaspase-3 protein was added into 384-well plates. Tested compounds (or DMSO as control) were then added to achieve a final concentration of procaspase-3 of 50 ng/ml. Each plate was incubated for 2 hrs at 37°C. Then caspase-3 peptide substrate (acetyl Asp-Glu-Val-Asp-[…] (Ac-DEVD-pNa), 200 μM) were added. The absorbance of each well was measured at 405 nm in kinetic mode for 10 min [13].

[3] = test system: human malignant cell lines; assay: MTT cytotoxicity in fifteen human malignant cell lines; assay type: cell-based; settings: for pIC50: Homo sapiens, MTT, 72 hrs
Excerpt: as §2, §1

rh-procaspase-3 [4] = target: T1, rh-procaspase-3; assay: Assay of zinc inhibition of procaspase-3 activation; assay type: biochemical; settings: PC3 + 5 μM ZnSO4; read-out: EC50 of procaspase-3 activation in zinc-containing buffer
Procedure: HEPES buffer [with 50 mM HEPES and 300 mM NaCl (pH 7.4)] was treated with Chelex resin to remove trace bivalent cations (including zinc ion). ZnSO4 and different concentration PAC-1 or WF-208 was added to procaspase-3 in HEPES to yield a final concentration of 0.5 μM procaspase-3. After 12 hrs of incubation at 37°C, Ac-DEVD-pNA in buffer [50 mM Hepes (pH 7.4), 100 mM NaCl, 10 mM DTT, 0.1 mM EDTA disodium salt, 0.10% Chaps, 10% glycerol] was added. The final concentration Ac-DEVD-pNA is 0.4 μM. Then the plate was read absorbance at 405 nm in kinetic mode for 10 min. On the other hand, after various time of incubation at 37°C, western blotting was used to detect the cleavage of procaspase-3 [13],[14].

O=C(CN1CCN(Cc2nc(-c3ccc(COc4ccc(Cl)cc4)cc3)no2)CC1)N/N=C/c1ccc(OCc2csc(Cc3ccc4c(c3)OCO4)n2)cc1O [C2]
cytotoxic effect in MCF-7 cells transfected with procaspase-3 [1]: more sensitive
cytotoxicity on co-treatment with ZnSO4 (HL-60 cell line): significantly relieved
pIC50 (human normal cells; Figure 3 panel D, read-out: Mean (IC50) of human normal cells): 3.46
pIC50 (human normal cells; text b44, read-out: mean IC50 value on three different normal cells): 3.67
cells with procaspase-3 cleaved (HL-60 cells): more than 60%
pEC50 (rh-procaspase-3 [2]): 6.25
pIC50 ([3]; range over the cell lines, read-out: IC50 values against tumour cells): 4.89 to 7.10
pIC50 ([3]; read-out: overall mean IC50 value in the fifteen malignant cell lines): 5.78
fold increase of cytotoxicity (mean IC50) compared with PAC-1 ([3]; fifteen malignant cell lines): ~20 fold
pEC50 (rh-procaspase-3 [4]): 5.60
